Among the data in ChEMBL document CHEMBL1671795, “Evaluation of endogenous fatty acid amides and their synthetic analogues as potential anti-inflammatory leads” (Bioorg Med Chem, 2011) are Activity and CC50 values, retold here.

Data set [1] deals with RAW264.7. Kind of data set: Antiinflammatory activity against LPS-stimulated mouse RAW264.7 cells assessed as inhibition of NO production at 3.125 to 25 uM after 24 hrs by Griess method. In kind it is functional, cell-based. On the technique in general: The Griess reaction detects nitrite, a stable product of nitric oxide.
Data set [2] has as its system RAW264.7. Kind of data set: Cytotoxicity against mouse RAW264.7 cells at 50 uM after 24 hrs by MTT assay. The format is cell-based. To be noted: raw264.7, 24 h. On the technique in general: Tetrazolium assays rely on reduction of a dye to a coloured formazan, in cell work by metabolically active cells.
Data set [3] has as its system RAW264.7. Kind of data set: Cytotoxicity against mouse RAW264.7 cells at 100 uM after 24 hrs by MTT assay. In kind it is cell-based. The following applies: raw264.7, 24 h.
In data set [4] the test system is RAW264.7. The data set is described as follows: Antiinflammatory activity against LPS-stimulated mouse RAW264.7 cells assessed as inhibition of TNFalpha production at 1 to 15 uM after 18 hrs by ELISA. The format is functional, cell-based. A general note: In an ELISA, binding on a coated surface is turned into a signal by an enzyme label.
In data set [5] the test system is RAW264.7. The data set is described as follows: Antiinflammatory activity against LPS-stimulated mouse RAW264.7 cells assessed as inhibition of IL1-beta production at 1 to 15 uM after 18 hrs by ELISA. The format is functional, cell-based.
For data set [6], the system named is RAW264.7. The data set is described as follows: Antiinflammatory activity against LPS-stimulated mouse RAW264.7 cells assessed as inhibition of IL-6 production at 1 to 15 uM after 18 hrs by ELISA. In kind it is functional, cell-based.
The subject of data set [7] is HaCaT. The data set is described as follows: Antiinflammatory activity against IFN-gamma-stimulated human HaCaT cells assessed as inhibition of chemokine MDC production at 50 to 100 uM after 18 hrs by ELISA. The format is functional, cell-based.
Data set [8] relates to HaCaT. The data set is described as follows: Cytotoxicity against human HaCaT cells at 50 to 100 uM after 24 hrs by MTT assay. In kind it is cell-based.
Data set [9] can be described thus: Cytotoxicity against mouse RAW264.7 cells after 24 hrs by MTT assay. In kind it is cell-based. The following applies: read-out: TC50.

SMILES strings stand for the structures.

As for `CCCCCCCC/C=C\CCCCCCCCCCCC(=O)NCCc1ccc(O)c(O)c1`, the Activity result in the data set with RAW264.7 [1] was “Dose-dependent effect”; in the data set on RAW264.7 [1] (record 2), 2 µM; in the data set on RAW264.7 [2], “Toxic”; with RAW264.7 [3], “Toxic”; in the data set on RAW264.7 [4], “Dose-dependent effect”; with RAW264.7 [5] it was “Dose-dependent effect”. The Activity result was “Dose-dependent effect” in the data set on RAW264.7 [6], “Non-toxic” in the data set with HaCaT [7] and “Toxic” with HaCaT [8]. The CC50 at 24 h in data set [9] came out at 13 µM.
